The values below come from patent US20210084950A1, “SWEETENING COMPOSITION INDUCING SWEETNESS RESPONSE THROUGH MOLECULE OTHER THAN SWEET TASTE RECEPTOR (T1R2/T1R3)” (SUNTORY HOLDINGS LIMITED, priority 2018, published 2021).

The conditions of experiment [1]: cited from earlier work; for Degree of Sweetness: sucrose per unit concentration Brix 1 defined as 1.
The target of experiment [2] is T1, sweet taste receptor (T1R2/T1R3) (Homo sapiens, UniProt Q7RTX0+Q8TE23).
T1 sequence (Q8TE23 20-839): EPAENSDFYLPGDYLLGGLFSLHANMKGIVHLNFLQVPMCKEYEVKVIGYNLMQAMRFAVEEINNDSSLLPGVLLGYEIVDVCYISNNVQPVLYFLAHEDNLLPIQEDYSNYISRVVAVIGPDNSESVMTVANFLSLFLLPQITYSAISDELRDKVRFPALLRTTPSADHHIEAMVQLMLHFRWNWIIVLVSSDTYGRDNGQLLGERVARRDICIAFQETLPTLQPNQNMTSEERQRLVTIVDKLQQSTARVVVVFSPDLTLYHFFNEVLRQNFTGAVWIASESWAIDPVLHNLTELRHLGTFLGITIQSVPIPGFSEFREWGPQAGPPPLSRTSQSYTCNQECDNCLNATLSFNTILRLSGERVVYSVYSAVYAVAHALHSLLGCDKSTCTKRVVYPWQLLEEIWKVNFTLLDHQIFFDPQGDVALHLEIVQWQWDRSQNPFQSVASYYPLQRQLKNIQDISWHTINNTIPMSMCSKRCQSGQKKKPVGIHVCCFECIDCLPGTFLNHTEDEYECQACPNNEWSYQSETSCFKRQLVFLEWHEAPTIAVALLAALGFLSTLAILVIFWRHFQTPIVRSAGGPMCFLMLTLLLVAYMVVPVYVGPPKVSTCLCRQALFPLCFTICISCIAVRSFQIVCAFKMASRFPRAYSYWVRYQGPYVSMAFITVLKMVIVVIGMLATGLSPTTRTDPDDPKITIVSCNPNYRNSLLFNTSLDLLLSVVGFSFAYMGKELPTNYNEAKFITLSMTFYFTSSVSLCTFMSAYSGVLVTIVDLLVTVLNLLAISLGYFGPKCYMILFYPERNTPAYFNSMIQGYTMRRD
T1 sequence (Q7RTX0 21-852): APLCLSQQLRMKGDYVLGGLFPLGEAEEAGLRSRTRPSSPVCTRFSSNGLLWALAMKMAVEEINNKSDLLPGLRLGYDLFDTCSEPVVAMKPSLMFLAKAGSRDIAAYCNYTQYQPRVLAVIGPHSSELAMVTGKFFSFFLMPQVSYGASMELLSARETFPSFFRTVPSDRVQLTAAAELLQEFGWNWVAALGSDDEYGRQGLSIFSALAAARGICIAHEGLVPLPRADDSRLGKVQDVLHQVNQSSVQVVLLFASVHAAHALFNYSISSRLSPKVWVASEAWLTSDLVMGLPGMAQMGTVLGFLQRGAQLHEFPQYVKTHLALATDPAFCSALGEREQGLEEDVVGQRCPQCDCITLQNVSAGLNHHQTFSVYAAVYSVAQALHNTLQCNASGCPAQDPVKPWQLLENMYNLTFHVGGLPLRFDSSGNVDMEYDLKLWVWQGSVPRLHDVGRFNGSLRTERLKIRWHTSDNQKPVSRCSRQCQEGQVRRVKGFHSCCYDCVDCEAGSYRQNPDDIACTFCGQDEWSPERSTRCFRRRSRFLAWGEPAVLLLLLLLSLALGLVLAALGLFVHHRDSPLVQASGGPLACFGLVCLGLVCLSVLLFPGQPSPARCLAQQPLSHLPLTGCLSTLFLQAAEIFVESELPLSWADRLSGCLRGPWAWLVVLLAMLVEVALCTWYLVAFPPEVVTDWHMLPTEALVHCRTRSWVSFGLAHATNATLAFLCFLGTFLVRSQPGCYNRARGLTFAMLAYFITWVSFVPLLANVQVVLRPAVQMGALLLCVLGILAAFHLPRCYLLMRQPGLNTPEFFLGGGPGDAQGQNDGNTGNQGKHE
As to the kind of experiment: Sensory evaluation of remaining sweetness intensity of sweet substances with lactisole, relative to sucrose + lactisole. The note with it: 100 ppm lactisole; solution 15-1 (12 w/v % sucrose + 100 ppm lactisole) = 100%; n=4.
From the text: The sweetness intensity of each sample solution was scored by using VAS scale. […] When the value was 50% or more, the substance was considered to be a sucrose-like substance, the taste of which is close to that of sucrose; and when the value was less than 50%, the substance was considered to be a substance, the taste of which is far from that of sucrose.
Each sweet substance was blended so as to have an approximately equal degree of sweetness of 12 w/v % sucrose (corresponding to about Brix 12) while the known degree of sweetness of each sweet substance was used for calculation. […] The sweetness intensity of each sample solution was scored by using VAS scale. […] When the value was 50% or more, the substance was considered to be a sucrose-like substance, the taste of which is close to that of sucrose; and when the value was less than 50%, the substance was considered to be a substance, the taste of which is far from that of sucrose.
D-tagatose was blended so as to have an approximately equal degree of sweetness of 12 w/v % sucrose (corresponding to about Brix 12) while the known degree of sweetness of D-tagatose was used for calculation. […] The sweetness intensity of each sample solution was scored by using VAS scale. […]

In experiment [3] the target is T1, sweet taste receptor (T1R2/T1R3). Nature of the experiment: Sensory evaluation (spit test, VAS scale) of sweetness intensity with lactisole, relative to lactisole-free solution. The class given is in vivo. Details: The sweet taste receptor is expressed naturally on the cell surface of each taste cell; from tissue; host or cells: tongue (taste cells) of living human panelists; spit test. The note with it: remaining sweetness with 100 ppm lactisole expressed as sucrose solution.
Method: Sensory-trained persons (5 subjects) were panelists who conducted evaluation. […] Note that each sample solution was designed to have an approximately equal sweetness intensity while the sweetness intensity of sucralose was estimated to be 600 times the sweetness intensity of sucrose. […] A spit test was conducted for the sensory evaluation. […] Note that each energy (kcal/100 ml) was calculated while the energy of sucrose was set to 4 kcal/g and the energy of sucralose was set to 0 kcal/g.
The sweetness intensity of each sample was scored by using VAS scale. The sweetness intensity of each solution was calculated as a relative value (%) while the sweetness intensity of the 12 w/v % sucrose solution was set to 100%.

In the case of `O=C[C@H](O)[C@H](O)[C@H](O)[C@H](O)CO` [Allose], in experiment [1], the “Degree of Sweetness” value was 0.8.
As to `O=C(CO)[C@H](O)[C@H](O)[C@H](O)CO` [D-allulose], the “Degree of Sweetness” value in experiment [1] is listed as 0.7.
Take `O=C(CO)[C@@H](O)[C@@H](O)[C@H](O)CO` [D-tagatose]: the “Degree of Sweetness” value in experiment [1] was 0.9. Moreover, the “Relative sweetness intensity (%)” value in experiment [2] is listed as ≥ 50%.
In the case of `OC[C@H]1O[C@H](O[C@H]2[C@H](O)[C@@H](O)[C@H](O)O[C@@H]2CO)[C@H](O)[C@@H](O)[C@@H]1O` [Maltose], the “Degree of Sweetness” value in experiment [1] is listed as 0.4.
As to `OC[C@H]1O[C@H](O[C@]2(CCl)O[C@H](CCl)[C@@H](O)[C@@H]2O)[C@H](O)[C@@H](O)[C@H]1Cl` [sucralose], in experiment [3], the “sweetness level corresponding to sucrose solution” value was found to be 0.144 w/v %. In addition, in experiment [1] (estimate used to design sample solutions), the “sweetness intensity relative to the sweetness intensity of sucrose” value is listed as 600 times.
With `OC[C@H]1O[C@@](CO)(O[C@H]2O[C@H](CO)[C@@H](O)[C@H](O)[C@H]2O)[C@@H](O)[C@@H]1O` [sucrose], the “sweetness level corresponding to sucrose solution” value in experiment [3] is listed as 2.0 w/v %. For the same compound, the “Degree of Sweetness” value in experiment [1] is 1.
